Assay results as given in PubChem BioAssay (NCI).
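Briefly, cells in 96-well plates were exposed to five compound concentrations for 48 h, and endpoints were estimated by linear interpolation. GI50: concentration for 50% inhibition of growth. At the TGI there is no net growth.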

Key:
Experiment in all cases: DTP human tumour cell line panel, 48 h
A498 renal = test system: A498 renal
HT29 colon = test system: HT29 colon
NCI-H226 lung = test system: NCI-H226 lung
NCI-H460 lung = test system: NCI-H460 lung
OVCAR-3 ovarian = test system: OVCAR-3 ovarian
OVCAR-4 ovarian = test system: OVCAR-4 ovarian
SK-MEL-5 melanoma = test system: SK-MEL-5 melanoma
SN12C renal = test system: SN12C renal
U251 CNS = test system: U251 CNS
UACC-62 melanoma = test system: UACC-62 melanoma

SMILES | TGI (A498 renal) | TGI (HT29 colon) | TGI (NCI-H226 lung) | TGI (NCI-H460 lung) | TGI (OVCAR-3 ovarian) | TGI (OVCAR-4 ovarian) | TGI (SK-MEL-5 melanoma) | TGI (SN12C renal) | TGI (U251 CNS) | TGI (UACC-62 melanoma) | GI50 (A498 renal) | GI50 (HT29 colon) | GI50 (NCI-H226 lung) | GI50 (NCI-H460 lung) | GI50 (OVCAR-3 ovarian) | GI50 (OVCAR-4 ovarian) | GI50 (SK-MEL-5 melanoma) | GI50 (SN12C renal) | GI50 (U251 CNS) | GI50 (UACC-62 melanoma)
N#CC(C#N)=CNCCN1CCN(C=C(C#N)C#N)CC1 | > 100 µM | > 100 µM | > 100 µM | > 100 µM | > 100 µM | > 100 µM | > 100 µM | > 100 µM | > 100 µM | > 100 µM |  |  |  |  |  |  |  |  |  | 
COc1cc2c3c(n(CCCN4CCNCC4)c(=O)c2cc1OC)-c1cc2c(cc1C3=O)OCO2 | 4.44 µM | 29.8 µM | 3.71 µM | 2.07 µM | 4.35 µM | 12.4 µM | 10.5 µM | 0.491 µM | 2.92 µM | 7.61 µM | 281 nM | 942 nM | 127 nM | 9.51 nM | 1220 nM | 4050 nM | 1330 nM | 102 nM | 89.2 nM | 997 nM
C/C(=N\NC(=S)N1CCN(c2ccccn2)CC1)c1ccccn1 | 15 µM | 16 µM | 7.33 µM | 12.9 µM | 14.2 µM | 12.6 µM | 13.5 µM | 18.5 µM | 12.9 µM |  | 1670 nM | < 19.2 nM | 236 nM | 10.2 nM |  | 1080 nM | 68.8 nM |  | < 16.1 nM | < 11.4 nM
COc1ccc(-c2cc(/C=C3\C(=O)Nc4cc(Cl)ccc43)[nH]n2)cc1 | 7.04 µM | 13.1 µM | 98.6 µM | 23.1 µM | 8.48 µM | 94.1 µM | 8.32 µM | > 100 µM | 25.8 µM | > 100 µM | 2380 nM | 3320 nM | 13100 nM | 3430 nM | 2590 nM | 6790 nM | 1900 nM | 6690 nM | 3460 nM | 2460 nM
O=C(/C=C/C12c3ccccc3C(c3ccccc31)C1C(=O)N(c3ccc(Cl)cc3)C(=O)C12)c1ccccn1 (configuration not stated) | 0.792 µM | 8.67 µM | 0.878 µM | 0.568 µM | 0.52 µM | > 30.9 µM | 1.21 µM | 1.57 µM | 0.74 µM | 0.973 µM | 277 nM | 335 nM | 258 nM | 232 nM | 224 nM | 478 nM | 515 nM | 320 nM | 256 nM | 279 nM
Cc1ccc([P+](Cc2ccccc2)(c2ccccc2)c2ccccc2)cc1 | 7.15 µM | 10.5 µM | > 100 µM | 10.5 µM | 65.8 µM | > 100 µM | 2.3 µM | 13.1 µM | 24.4 µM | 11.3 µM | 1630 nM | 1600 nM | 2570 nM | 2330 nM | 1520 nM | 2620 nM | 904 nM | 2660 nM | 2140 nM | 1770 nM
Oc1c(C(Nc2ccccn2)c2cccc(Oc3ccccc3)c2)ccc2cccnc12 (configuration not stated) | 6.22 µM | 30.1 µM | 9.32 µM | 10.5 µM | 13.4 µM | 13.4 µM | 2.16 µM | 20.9 µM | 14 µM | 1.29 µM | 262 nM | 1630 nM | 1360 nM | 365 nM | 560 nM | 361 nM | 388 nM | 591 nM | 362 nM | 310 nM
Cc1ccc(-c2nc3nc(-c4ccc(F)cc4)nc(N4CCNCC4)c3o2)cc1 | 30.5 µM | 3.93 µM | 26.7 µM | 3.77 µM | 3.5 µM | 3.5 µM | 29 µM | 19.8 µM | 4.03 µM | 29.9 µM | 16100 nM | 1860 nM | 10600 nM | 1940 nM | 1860 nM | 1890 nM | 15400 nM | 5540 nM | 1950 nM | 15400 nM
COC(=O)C1=COC2OC3C(C(C)O)C(=O)OC34C=CC1C24 (configuration not stated) | > 100 µM | > 100 µM | > 100 µM | > 100 µM | > 100 µM | > 100 µM | > 100 µM | > 100 µM | > 100 µM | 79.1 µM |  |  |  |  |  |  |  |  |  | 
NC(=O)c1cccc2c(N[C@H](CN3CCC3)c3ccc(Cl)c(C(F)(F)F)c3)ncnc12 | 0.908 µM | 12.1 µM | 16.2 µM | 12.4 µM | 16.2 µM | 16.6 µM | 3.27 µM | 13.9 µM | 12.1 µM | 8.62 µM | 138 nM | 981 nM | 1990 nM | 739 nM | 3300 nM | 3260 nM | 1700 nM | 2110 nM | 548 nM | 1130 nM
